This passage reports Effect results from ChEMBL document CHEMBL1141890, “DNA topoisomerase I inhibitors from Rinorea anguifera” (Bioorg Med Chem Lett, 2005).

Assay [1] has as its target T1, DNA topoisomerase 1 (Homo sapiens) (UniProt P11387).
T1 sequence (whole entry): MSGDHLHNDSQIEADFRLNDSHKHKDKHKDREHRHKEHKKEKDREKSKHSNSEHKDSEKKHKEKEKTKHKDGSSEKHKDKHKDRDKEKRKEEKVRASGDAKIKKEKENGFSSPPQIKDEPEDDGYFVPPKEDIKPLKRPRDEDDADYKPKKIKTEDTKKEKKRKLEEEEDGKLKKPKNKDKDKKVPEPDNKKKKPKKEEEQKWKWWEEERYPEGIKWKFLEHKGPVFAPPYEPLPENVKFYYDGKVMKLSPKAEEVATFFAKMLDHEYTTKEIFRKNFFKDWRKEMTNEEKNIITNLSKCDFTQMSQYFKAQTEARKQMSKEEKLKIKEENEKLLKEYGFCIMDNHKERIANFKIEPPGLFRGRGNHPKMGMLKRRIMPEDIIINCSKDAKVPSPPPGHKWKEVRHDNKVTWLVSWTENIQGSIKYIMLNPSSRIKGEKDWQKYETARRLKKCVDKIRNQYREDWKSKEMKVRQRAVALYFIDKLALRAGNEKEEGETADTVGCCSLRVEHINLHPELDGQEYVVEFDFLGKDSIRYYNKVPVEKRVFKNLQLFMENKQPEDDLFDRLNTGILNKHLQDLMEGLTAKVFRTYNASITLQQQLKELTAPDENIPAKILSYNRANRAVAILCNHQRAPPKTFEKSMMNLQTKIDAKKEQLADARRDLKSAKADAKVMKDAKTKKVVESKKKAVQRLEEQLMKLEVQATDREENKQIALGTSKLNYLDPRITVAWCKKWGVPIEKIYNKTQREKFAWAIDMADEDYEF
The assay is described as follows: Effect on DNA breakge as nicked FormII at 100 uM without topoisomerase I. In kind it is functional.

The target of assay [2] is T1, DNA topoisomerase 1 (Homo sapiens). The assay is described as follows: Effect on DNA breakge as nicked FormII at 1 uM with topoisomerase I. Format: functional.
Assay [3] has the same target. Description: Effect on stabilization of human topoisomerase I-DNA covalent complex at 100 uM.
For assay [4] the target is unchanged. To be noted: 2 uM.
Description: Effect on stabilization of human topoisomerase I-DNA covalent complex at 2 uM
For assay [5] the target is unchanged. To be noted: 2 uM. This is another data set of the same source.
Description: Effect on DNA breakge as nicked FormII at 2 uM without topoisomerase I
The target is the same in assay [6]. To be noted: 0.25 uM.
Description: Effect on DNA breakge as nicked FormII at 0.25 uM with topoisomerase I

Consider `COc1cc([C@H]2OC[C@H]3[C@@H]2CO[C@@H]3c2cc(OC)c(O)c(OC)c2)cc(OC)c1O`, for which the Effect was found to be 15% in assay [1], 8% in assay [2] and 2% in assay [3].
As to `CC[C@@]1(O)C(=O)OCc2c1cc1n(c2=O)Cc2cc3ccccc3nc2-1`, the Effect in assay [4] amounted to 2%; in assay [5], 96%; in assay [6] it was 84%.
With `CC1O[C@@H](OC[C@H]2O[C@@H](Oc3c(-c4ccc(O)cc4)oc4cc(O)cc(O)c4c3=O)C(O[C@@H]3O[C@H](C)[C@H](O)C(O)C3O)C(O)[C@H]2O)C(O)[C@@H](O)[C@H]1O` (some centres undefined), the Effect in assay [1] was 75%; in assay [2], 31%; in assay [3], 10%.
